Values quoted from earlier work, collected in US9024067B2, “Process for preparing carboxylic acid amides useful in the treatment of muscular disorders” (Canbex Therapeutics Limited, priority 2009, dated 2015).

Test system: spasticity in CREAE mice
Details: initial studies (WO2005/080316)

CC(CO)NC(=O)c1cccc(/C=C\CCCC(=O)N(C)C)c1 (stereo not shown) [VSN-16]
effect on spasticity: marked effect on spasticity
